This note sets out measurements from publication PMC12698594, “A natural PCID2-Targeting compound suppresses hepatocellular carcinoma progression: evidence from structure-based discovery and biological evaluation” (Frontiers in Pharmacology, 2025).

This assay deals with T1, PCID2 (PCI-domain containing protein 2) (Homo sapiens, UniProt Q5JVF3).
T1 construct: amine-type direct coupling to CM5 chip; DSS1 not mentioned in the SPR test
As to the kind of experiment: SPR (Biacore, CM5 chip, […] Langmuir global fit). It is filed as binding. For orientation: Surface plasmon resonance follows binding to a sensor surface in real time, without labels.

T1 sequence (Q5JVF3 2-399): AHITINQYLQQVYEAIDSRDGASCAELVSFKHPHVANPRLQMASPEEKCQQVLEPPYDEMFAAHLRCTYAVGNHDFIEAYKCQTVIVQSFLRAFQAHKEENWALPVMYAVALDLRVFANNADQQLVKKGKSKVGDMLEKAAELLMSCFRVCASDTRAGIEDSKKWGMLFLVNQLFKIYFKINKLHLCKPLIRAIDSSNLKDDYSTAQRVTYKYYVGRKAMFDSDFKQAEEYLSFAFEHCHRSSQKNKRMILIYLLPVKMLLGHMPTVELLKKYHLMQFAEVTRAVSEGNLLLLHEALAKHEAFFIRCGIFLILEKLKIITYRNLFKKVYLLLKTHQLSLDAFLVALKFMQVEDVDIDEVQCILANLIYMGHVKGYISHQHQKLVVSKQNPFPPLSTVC

A word on the Kd: it is the equilibrium constant for the complex coming apart. A higher Kd goes with lower affinity. In the case of `O=C(OC[C@H]1O[C@@H](OC(=O)c2cc(O)c(O)c(O)c2)[C@H](OC(=O)c2cc(O)c(O)c(O)c2)[C@@H](OC(=O)c2cc(O)c(O)c(O)c2)[C@@H]1OC(=O)c1cc(O)c(O)c(O)c1)c1cc(O)c(O)c(O)c1` [#02, 1,2,3,4,6-Penta-O-galloyl-β-D-glucose], the Kd amounted to 5.27 µM.
